assay: gradient 5% acetonitrile 3 min, to 50% in 2 min, to 85% in 15 min, held 3 min, 100 µL/min; conditions: column: Zorbax Extend-C18 2.1 x 50 mm; eluents: water / acetonitrile, 0.1% formic acid
Procedure, shortened: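 Each retention time is based on an adduct peak selected computationally and verified by manual inspection. Measurements used HPLC–quadrupole time-of-flight mass spectrometry in positive and negative ionization mode on mixtures of ~100 pure standards. Chromatography ran on a Zorbax Extend-C18 column (2.1 × 50 mm, 1.8 μm) at 100 μL/min with water and acetonitrile, each containing 0.1% formic acid, and dead and dwell volumes of 40 μL and 900 μL.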

Row | SMILES | RP-LC retention time
1 | COC(=O)CSCC(=O)Nc1cc(C(F)(F)F)ccc1Cl | 613 s
2 | Cc1ccccc1NC(=O)c1csc(-c2cn(C)c3ncccc23)n1 | 1020 s
3 | O=C(Cc1c[nH]c2ccccc12)N1CCC(NS(=O)(=O)c2ccc(F)cc2)CC1 | 781 s
4 | CN1C(=O)c2cccn2CC1C(=O)NCC1CC1 (stereo not given) | 608 s
5 | O=C(C1CCCC1)N1CCCCC1c1nc(C2CC2)n[nH]1 (stereo not given) | 676 s
6 | COc1ccc(-c2cn3c(CC(=O)Nc4ccc(F)cc4)csc3n2)cc1OC | 729 s
7 | COc1cc(-c2noc(Cn3cnc4c(oc5ccccc54)c3=O)n2)cc(OC)c1OC | 857 s
8 | CCCNC(=O)c1ccc(-c2nc3cc(NS(=O)(=O)c4cnc[nH]4)ccc3n2C)cc1 | 578 s
9 | CCOC(=O)CNC(=O)N1CC(n2cc(COc3ccc(F)cc3)nn2)C1 | 692 s
10 | Cc1ccc(-c2noc(-c3cccc(S(=O)(=O)Nc4ccc(C#N)cc4)c3)n2)cc1 | 1140 s
11 | COc1ccc(S(=O)(=O)Nc2cc(-c3cn4cccc(C)c4n3)ccc2C)cc1C | 707 s
12 | CCOC(=O)c1noc2nc(C)nc(N(C)c3cc(C)ccc3OC)c12 | 1040 s
13 | COc1cc(NC(=O)c2cc3cc4cc(OC)ccc4nc3o2)cc(OC)c1 | 971 s
14 | Cc1nn(-c2nc(-c3ccc(F)cc3)cs2)c(C)c1CC(=O)Nc1ccc(Cl)cc1 | 1190 s
15 | Cc1nc(-c2ccccc2Cl)sc1C(=O)N[C@@H](Cc1c[nH]c2ccccc12)C(=O)O | 898 s
16 | O=c1c2cnn(-c3ccc(F)cc3)c2ncn1Cc1nc(-c2cccc(Br)c2)no1 | 1130 s
17 | COc1cc(SC)ccc1C(=O)NCCc1c[nH]c2ccc(C)cc12 | 953 s
18 | O=C(NCCCn1ncccc1=O)c1coc(NC(=O)c2cnccn2)n1 | 554 s
19 | COc1ccccc1S(=O)(=O)NCCc1ccsc1 | 824 s
20 | Cc1ccccc1Nc1c(-c2cccc(Br)c2)nc2cccc(C)n12 | 833 s
21 | COc1cccc(-c2nc(Cn3c(=O)c4c(C)cc(C)nc4n(C)c3=O)c(C)o2)c1OC | 1130 s
22 | CCOC(=O)c1noc2ncnc(Nc3ccccc3)c12 | 1000 s
23 | CCCn1c(CCNC(=O)c2cccc(Cl)c2)nc2cccnc21 | 639 s
24 | CCOC(=O)c1c(S(=O)(=O)N2CCC(C(=O)NC(C)CC)CC2)c(C)n(C)c1C (stereo not given) | 747 s
25 | CO[C@H]1CN(C(C)C)[C@H]1C1CCN(C(=O)C2CC=CC2)CC1 | 593 s
26 | O=C(NC1CCN(c2ccccc2)C1=O)c1cccc(Br)c1 (stereo not given) | 855 s
27 | CCCn1c(=O)c(C)nc2cc(-c3noc(-c4ccc(OCC)cc4)n3)ccc21 | 1290 s

Next, values leading:

Row | RP-LC retention time | SMILES
28 | 632 s | CN1C(=O)c2cc(C(=O)N3CCOCC3)nn2CC1(C)C(=O)NCc1ccccc1 (stereo not given)
29 | 620 s | Cc1cc(=O)n(CC(=O)Nc2ccc3c(c2)OCCO3)c(N2CCCC2)n1
30 | 546 s | Cc1nn(-c2ccc(N3CCCC3)nn2)c(C)c1CCC(=O)N1CCN(c2ccccn2)CC1
31 | 784 s | O=C(Nc1cccc(F)c1)N1CCN(Cc2nc3cc(Cl)ccc3o2)CC1
32 | 802 s | CCn1c(C(=O)NCCCN2CCCC(C)C2)cc2c(-c3cccs3)nn(-c3ccccc3)c21 (stereo not given)
33 | 952 s | CCc1nc(-c2csc(S(=O)(=O)N3CCCC(C(=O)NCc4cccs4)C3)c2)no1 (stereo not given)
34 | 850 s | CC1=C(c2cccc(Cl)c2)S(=O)(=O)N=C1N1CCCN(C(=O)C2CCC2)CC1
35 | 578 s | CCOCCCNC(=S)Nc1ccc2nc(N3CCN(CC)CC3)cc(C)c2c1
36 | 606 s | COc1ccc(CCC(=O)NC(C)C(=O)N2CCN(c3ccccn3)CC2)cc1 (stereo not given)
37 | 959 s | COc1ccc(Cl)cc1NC(=O)c1nc2nc(C)cc(C(F)F)n2n1
38 | 755 s | O=C(NCc1ccc(Br)cc1)C1CCCN(c2cnc3nccnc3c2)C1 (stereo not given)
39 | 586 s | Cn1c(=O)c(N2CCN(C(=O)c3ccc(F)cc3F)CC2)nc2ccncc21
40 | 832 s | Cc1ccc(NC(=O)Cn2nc3cc(C)nc(-c4ccccc4)n3c2=O)c(C)c1
41 | 836 s | Cc1cc(C)cc(C(=O)N2CCCC(C(=O)NCCc3ccco3)C2)c1 (stereo not given)
42 | 786 s | CCOC(=O)c1cc2n(n1)CC(C)(C(=O)NCc1ccc(C)cc1)N(C1CC1)C2=O (stereo not given)
43 | 772 s | O=C1COc2cc(S(=O)(=O)N3CCC(C(=O)NC4CCCCC4)CC3)c(Cl)cc2N1
44 | 963 s | CC(C)CCNC(=O)CN1c2ccc(F)cc2-c2ccccc2S1(=O)=O
45 | 593 s | CCCNC(=O)C1CCN(c2ccc(SCC(=O)Nc3ccc(S(C)(=O)=O)cc3)nn2)CC1
46 | 604 s | COc1ccc(CNC(=O)c2cn3ccc(C)cc3n2)cc1OC

Row | RP-LC retention time | SMILES
47 | 819 s | CN(c1nccn2c(=O)n(CC(=O)Nc3ccc(F)c(Cl)c3)nc12)C1CCCCC1
48 | 810 s | O=C(Cn1c(=O)c(S(=O)(=O)c2ccccc2)cc2ccccc21)NCc1ccco1
49 | 594 s | Cc1ccc2c(Nc3ccc(F)cc3)c(C(=O)N3CCCC3)cnc2n1
50 | 945 s | Cc1cc(=O)n(CC(=O)NCc2ccc3c(c2)OCO3)c(N2CCCCC2)n1
51 | 695 s | O=C(NCCS(=O)(=O)N1CCc2ccccc2C1)C1CC1
52 | 772 s | Cc1cccc(NC(=O)Cn2ccc3ccn(C)c3c2=O)c1
53 | 927 s | O=S(=O)(c1cccn2c(SCc3ccccc3Cl)nnc12)N1CCCCC1
54 | 762 s | CCC(C)C(NC(=O)Cc1ccc(OC)c(Cl)c1)C(=O)Nc1nc2ccccc2[nH]1 (stereo not given)
55 | 1080 s | O=C(c1nnc(-c2ccc(S(=O)(=O)N3CCCCC3)cc2)o1)N1CCc2ccccc2C1
56 | 612 s | CC(=O)N1CCC(n2c(C)nc(C(=O)Nc3ccc4c(c3)OCCO4)c2C)CC1
57 | 720 s | CC1(C(=O)NCc2ccccc2)Cn2cnc(C(=O)N3CCc4ccccc43)c2C(=O)N1C1CC1 (stereo not given)
58 | 930 s | CC(C)C(=O)N1CCc2ccccc2C1C(=O)N1CCN(c2ccc(F)cc2)CC1 (stereo not given)
59 | 704 s | CNC(=O)CCc1nc2ccccc2n(CC(=O)NCCCc2ccccc2)c1=O
60 | 795 s | Cc1ccc(-n2nc3c(=O)n(CC(=O)NC4CCCC4)nc(C)c3c2C)cc1
61 | 948 s | CC(C)c1ccc(NC(=O)C2CCCN2S(=O)(=O)c2cc3c(cc2Cl)NC(=O)CO3)cc1 (stereo not given)
62 | 821 s | O=C(Nc1nc2ccccc2s1)C1CCN(C(=O)c2cccc(F)c2)CC1
63 | 893 s | CCC(=O)Nc1cc2c(cc1Sc1ccc(C)cc1)n(C)c(=O)n2C
64 | 886 s | COc1ccc(CCN2CC(=O)N(c3ccc(C)c(C)c3)[C@@H]3CS(=O)(=O)C[C@@H]32)cc1
65 | 778 s | O=C(CN1CCN(Cc2ccccc2F)C1=O)NCCc1cccs1
